Data taken from patent US20070219203A1, “Arylalkylamino-substituted quinazoline analogues” (Neurogen Corporation, priority 2004, published 2007).

Molecular target: T1, human capsaicin receptor (Homo sapiens, UniProt Q8NER1)
T1 construct: expressed in transfected cells
Assay: Calcium mobilization assay, antagonist activity (Example 6)
Format: cell-based
Settings: 50% decrease in fluorescence response of cells expressing human capsaicin receptor exposed to capsaicin
Experimental: A cDNA encoding full length human capsaicin receptor (SEQ ID NO:1, 2 or 3 of U.S. Pat. No. 6,482,611) is subcloned in the plasmid pBK-CMV (Stratagene, La Jolla, Calif.) for recombinant expression in mammalian cells.
Human embryonic kidney (HEK293) cells are transfected with the pBK-CMV expression construct encoding the full length human capsaicin receptor using standard methods. The transfected cells are selected for two weeks in media containing G418 (400 μg/ml) to obtain a pool of stably transfected cells. Independent clones are isolated from this pool by limiting dilution to obtain clonal stable cell lines for use in subsequent experiments.
Cells transfected with expression plasmids (as described in Example 4) and thereby expressing human capsaicin receptor are seeded and grown to 70-90% confluency in FALCON black-walled, clear-bottomed 96-well plates (#3904, BECTON-DICKINSON, Franklin Lakes, N.J.). The culture medium is emptied from the 96 well plates and […] calcium sensitive dye (Molecular Probes, Eugene, Oreg.) is added to each well (dye solution: 1 mg […], 440 μL DMSO and 440 μl 20% pluronic acid in DMSO, diluted 1:250 in Krebs-Ringer HEPES (KRH) buffer (25 mM HEPES, 5 mM KCl, 0.96 mM NaH2PO4, 1 mM MgSO4, 2 mM CaCl2, 5 mM glucose, 1 mM probenecid, pH 7.4), 50 μl diluted solution per well). Plates are covered with aluminum foil and incubated at 37° C. for 1-2 hours in an environment containing 5% CO2. After the incubation, the dye is emptied from the plates, and the cells are washed once with KRH buffer, and resuspended in KRH buffer.
To measure the ability of a test compound to agonize or antagonize a calcium mobilization response in cells expressing capsaicin receptors to capsaicin or other vanilloid agonist, the EC50 of the agonist capsaicin is first determined. An additional 20 μl of KRH buffer and 1 μl DMSO is added to each well of cells, prepared as described above. 100 μl capsaicin in KRH buffer is automatically transferred by the FLIPR instrument to each well. Capsaicin-induced calcium mobilization is monitored using either FLUOROSKAN ASCENT (Labsystems; Franklin, Mass.) or FLIPR (fluorometric imaging plate reader system; Molecular Devices, Sunnyvale, Calif.) instruments. Data obtained between 30 and 60 seconds after agonist application are used to generate an 8-point concentration response curve, with final capsaicin concentrations of 1 nM to 3 μM. KALEIDAGRAPH software (Synergy Software, Reading, Pa.) is used to fit the data to the equation: y=a*(1/(1+(b/x)^c)) to determine the 50% excitatory concentration (EC50) for the response. In this equation, y is the maximum fluorescence signal, x is the concentration of the agonist or antagonist (in this case, capsaicin), a is the Emax, b corresponds to the EC50 value and c is the Hill coefficient. Determination of Agonist Activity
Test compounds are dissolved in DMSO, diluted in 20 μl KRH buffer so that the final concentration of test compounds in the assay well is between 1 μM and 5 μM, and added to cells prepared as described above. The 96 well plates containing prepared cells and test compounds are incubated in the dark, at room temperature for 0.5 to 6 hours. It is important that the incubation not continue beyond 6 hours. Just prior to determining the fluorescence response, 100 μl capsaicin in KRH buffer at twice the EC50 concentration determined as described above is automatically added by the FLIPR instrument to each well of the 96 well plate for a final sample volume of 200 μl and a final capsaicin concentration equal to the EC50. The final concentration of test compounds in the assay wells is between 1 μM and 5 μM. […] The concentration of antagonist required to provide a 50% decrease, relative to the response observed in the presence of capsaicin and without antagonist, is the IC50 for the antagonist, and is preferably below 1 micromolar, 100 nanomolar, 10 nanomolar or 1 nanomolar.

T1 sequence (Q8NER1 whole entry): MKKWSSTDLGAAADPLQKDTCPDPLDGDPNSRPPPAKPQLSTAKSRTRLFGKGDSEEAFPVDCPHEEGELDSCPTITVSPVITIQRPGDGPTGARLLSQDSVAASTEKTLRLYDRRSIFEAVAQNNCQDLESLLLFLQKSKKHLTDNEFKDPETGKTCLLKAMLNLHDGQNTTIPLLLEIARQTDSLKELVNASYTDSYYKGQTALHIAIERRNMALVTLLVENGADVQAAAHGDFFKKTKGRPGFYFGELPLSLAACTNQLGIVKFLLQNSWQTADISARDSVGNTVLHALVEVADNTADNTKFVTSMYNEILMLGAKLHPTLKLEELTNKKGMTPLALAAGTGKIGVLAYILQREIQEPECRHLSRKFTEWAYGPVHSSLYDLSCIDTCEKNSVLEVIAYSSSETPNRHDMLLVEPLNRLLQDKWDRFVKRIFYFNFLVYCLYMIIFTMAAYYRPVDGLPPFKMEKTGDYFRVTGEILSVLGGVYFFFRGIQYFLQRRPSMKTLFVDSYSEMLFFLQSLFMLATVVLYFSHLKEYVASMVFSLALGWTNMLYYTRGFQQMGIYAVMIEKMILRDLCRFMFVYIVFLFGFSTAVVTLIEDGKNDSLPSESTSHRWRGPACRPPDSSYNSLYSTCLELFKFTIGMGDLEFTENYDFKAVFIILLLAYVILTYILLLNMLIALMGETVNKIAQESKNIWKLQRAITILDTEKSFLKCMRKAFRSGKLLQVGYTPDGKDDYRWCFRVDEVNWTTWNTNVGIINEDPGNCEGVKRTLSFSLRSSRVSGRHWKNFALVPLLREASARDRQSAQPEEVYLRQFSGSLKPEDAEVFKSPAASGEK

| SMILES | IC50 (Table II) | IC50 (Table I) |
| --- | --- | --- |
| CC(C)COCc1nc(NC(=O)Cc2ccc(F)cc2)c2ccc(-c3ncccc3C(F)(F)F)nc2n1 [Compound 59, 2-(4-fluorophenyl)-N-{2-(isobutoxymethyl)-7-[3-(trifluoromethyl)pyridin-2-yl]pyrido[2,3-d]pyrimidin-4-yl}acetamide] |  | ≤ 1000 nM |
| CC(C)COCc1nc(NCC(=O)c2cccc(Cl)c2)c2ccc(-c3ncccc3C(F)(F)F)nc2n1 [Compound 60, 1-(3-chlorophenyl)-2-({2-(isobutoxymethyl)-7-[3-(trifluoromethyl)pyridin-2-yl]pyrido[2,3-d]pyrimidin-4-yl}amino)ethanone] |  | ≤ 1000 nM |
| CC(C)COCc1nc(NC2Cc3ccccc3C2)c2ccc(-c3ncccc3Cl)nc2n1 [Compound 61, 7-(3-chloropyridin-2-yl)-N-(2,3-dihydro-1H-inden-2-yl)-2-(isobutoxymethyl)pyrido[2,3-d]pyrimidin-4-amine] |  | ≤ 1000 nM |
| CCOCc1nc(NC2Cc3ccccc3C2)c2ccc(-c3ncccc3Cl)nc2n1 [Compound 62, 7-(3-chloropyridin-2-yl)-N-(2,3-dihydro-1H-inden-2-yl)-2-(ethoxymethyl)pyrido[2,3-d]pyrimidin-4-amine] |  | ≤ 1000 nM |
| FC(F)(F)c1cccnc1-c1ccc2c(NC3CCc4ccccc43)ncnc2c1 (stereo not shown) [Compound 78, Indan-1-yl-[7-(3-trifluoromethyl-pyridin-2-yl)-quinazolin-4-yl]-amine] | ≤ 1000 nM |  |
| FC(F)(F)c1cccnc1-c1ccc2c(N[C@H]3CCCc4ccccc43)ncnc2c1 [Compound 81, (1,2,3,4-Tetrahydro-naphthalen-1-yl)-[7-(3-trifluoromethyl-pyridin-2-yl)-quinazolin-4-yl]-amine] | ≤ 1000 nM |  |
| FC(F)(F)c1cccnc1-c1ccc2c(NCCc3ccccc3)nc(CN3CCSCC3)nc2c1 [Compound 97, Phenethyl-[2-thiomorpholin-4-ylmethyl-7-(3-trifluoromethyl-pyridin-2-yl)-quinazolin-4-yl]-amine] | ≤ 1000 nM |  |
| CC1(C)CCCN(Cc2nc(NCCc3ccccc3)c3ccc(-c4ncccc4C(F)(F)F)cc3n2)C1 [Compound 100, [2(3,3-Dimethyl-piperidin-1-ylmethyl)-7-(3-trifluoromethyl-pyridin-2-yl)-quinazolin-4-yl]-phenethyl-amine] | ≤ 1000 nM |  |
| FC(F)(F)c1cccnc1-c1ccc2c(NCCc3ccccc3)nc(CN3CCCCCCC3)nc2c1 [Compound 103, [2-Azocan-1-ylmethyl-7-(3-trifluoromethyl-pyridin-2-yl)-quinazolin-4-yl]-phenethyl-amine] | ≤ 1000 nM |  |
| CC1CCN(Cc2nc(NCCc3ccccc3)c3ccc(-c4ncccc4C(F)(F)F)cc3n2)CC(C)(C)C1 (stereo not shown) [Compound 106, Phenethyl-[7-(3-trifluoromethyl-pyridin-2-yl)-2-(3,3,5-trimethyl-azepan-1-ylmethyl)-quinazolin-4-yl]-amine] | ≤ 1000 nM |  |
| Cc1ccccc1CCNc1nc(CN2CCC(C)CC(C)(C)C2)nc2cc(-c3ncccc3C(F)(F)F)ccc12 (stereo not shown) [Compound 107, (2-o-Tolyl-ethyl)-[7-(3-trifluoromethyl-pyridin-2-yl)-2-(3,3,5-trimethyl-azepan-1-ylmethyl)quinazolin-4-yl]-amine] | ≤ 1000 nM |  |
| Cc1ccccc1CCNc1nc(CN2CCC3(CC2)OCCO3)nc2cc(-c3ncccc3C(F)(F)F)ccc12 [Compound 110, [2-(1,4-Dioxa-8-aza-spiro[4.5]dec-8-ylmethyl)-7-(3-trifluoromethyl-pyridin-2-yl)-quinazolin-4-yl]-(2-o-tolyl-ethyl)-amine] | ≤ 1000 nM |  |
| C=CCN(CC=C)Cc1nc(NCCc2ccccc2)c2ccc(-c3ncccc3C(F)(F)F)cc2n1 [Compound 130, [2-Diallylaminomethyl-7-(3-trifluoromethyl-pyridin-2-yl)-quinazolin-4-yl]-phenethyl-amine] | ≤ 1000 nM |  |
| CCCN(Cc1nc(NCCc2ccccc2C)c2ccc(-c3ncccc3C(F)(F)F)cc2n1)CC1CC1 [Compound 140, [2-[(Cyclopropylmethyl-propyl-amino)-methyl]-7-(3-trifluoromethyl-pyridin-2-yl)-quinazolin-4-yl]-(2-o-tolyl-ethyl)-amine] | ≤ 1000 nM |  |
| CCCCN(CCCC)Cc1nc(NCCc2ccccc2)c2ccc(-c3ncccc3C(F)(F)F)cc2n1 [Compound 145, [2-Dibutylaminomethyl-7-(3-trifluoromethyl-pyridin-2-yl)-quinazolin-4-yl]-phenethyl-amine] | ≤ 1000 nM |  |
| CCCCN(CCCC)Cc1nc(NCCc2ccccc2C)c2ccc(-c3ncccc3C(F)(F)F)cc2n1 [Compound 146] | ≤ 1000 nM |  |
| C=C(C)CN(CC)Cc1nc(NCCc2ccccc2)c2ccc(-c3ncccc3C(F)(F)F)cc2n1 [Compound 154, [2-{[Ethyl-(2-methyl-allyl)-amino]-methyl}-7-(3-trifluoromethyl-pyridin-2-yl)-quinazolin-4-yl]-phenethyl-amine] | ≤ 1000 nM |  |

Continued, in another order:

| IC50 (Table II) | SMILES | IC50 (Table I) |
| --- | --- | --- |
| ≤ 1000 nM | FC(F)(F)c1cccnc1-c1ccc2c(NCCCc3ccccc3)ncnc2c1 [Compound 63, (3-Phenyl-propyl)-[7-(3-trifluoromethyl-pyridin-2-yl)-quinazolin-4-yl]-amine] |  |
| ≤ 1000 nM | Cc1ccc(CCNc2ncnc3cc(-c4ncccc4C(F)(F)F)ccc23)cc1 [Compound 64, (2-p-Tolyl-ethyl)-[7-(3-trifluoromethyl-pyridin-2-yl)-quinazolin-4-yl]-amine] |  |
| ≤ 1000 nM | Cc1ccccc1CCNc1ncnc2cc(-c3ncccc3C(F)(F)F)ccc12 [Compound 65, (2-o-Tolyl-ethyl)-[7-(3-trifluoromethyl-pyridin-2-yl)-quinazolin-4-yl]-amine] |  |
| ≤ 1000 nM | Cc1cccc(CCNc2ncnc3cc(-c4ncccc4C(F)(F)F)ccc23)c1 [Compound 66, (2-m-Tolyl-ethyl)-[7-(3-trifluoromethyl-pyridin-2-yl)-quinazolin-4-yl]-amine] |  |
| ≤ 1000 nM | CCC(CNc1ncnc2cc(-c3ncccc3C(F)(F)F)ccc12)c1ccccc1 (stereo not shown) [Compound 68, (2-Phenyl-butyl)-[7-(3-trifluoromethyl-pyridin-2-yl)-quinazolin-4-yl]-amine] |  |
| ≤ 1000 nM | CCCC(CNc1ncnc2cc(-c3ncccc3C(F)(F)F)ccc12)c1ccccc1 (stereo not shown) [Compound 69, (2-Phenyl-pentyl)-[7-(3-trifluoromethyl-pyridin-2-yl)-quinazolin-4-yl]-amine] |  |
| ≤ 1000 nM | CCCCC(CNc1ncnc2cc(-c3ncccc3C(F)(F)F)ccc12)c1ccccc1 (stereo not shown) [Compound 70, (2-Phenyl-hexyl)-[7-(3-trifluoromethyl-pyridin-2-yl)-quinazolin-4-yl]-amine] |  |
| ≤ 1000 nM | CC(C)CC(CNc1ncnc2cc(-c3ncccc3C(F)(F)F)ccc12)c1ccccc1 (stereo not shown) [Compound 72, (4-Methyl-2-phenyl-pentyl)-[7-(3-trifluoromethyl-pyridin-2-yl)-quinazolin-4-yl]-amine] |  |
| ≤ 1000 nM | CCCCCC(CNc1ncnc2cc(-c3ncccc3C(F)(F)F)ccc12)c1ccccc1 (stereo not shown) [Compound 73, (2-Phenyl-heptyl)-[7-(3-trifluoromethyl-pyridin-2-yl)-quinazolin-4-yl]-amine] |  |
| ≤ 1000 nM | FC(F)(F)c1cccnc1-c1ccc2c(NC3Cc4ccccc4C3)ncnc2c1 [Compound 76, Indan-2-yl-[7-(3-trifluoromethyl-pyridin-2-yl)-quinazolin-4-yl]-amine] |  |
| ≤ 1000 nM | FC(F)(F)c1cccnc1-c1ccc2c(NC3CCc4ccccc4C3)ncnc2c1 (stereo not shown) [Compound 77, (1,2,3,4-Tetrahydro-naphthalen-2-yl)-[7-(3-trifluoromethyl-pyridin-2-yl)-quinazolin-4-yl]-amine] |  |
